Assay results from patent US4067997A, “Synergistic microbecidal composition and method” (priority 1976, dated 1978).
≈ marks a conversion by molar mass, not a printed value. Where two headings read alike, the source gives them in different places.

What was measured:
[1] = tested on: Pneumococci; assay: MIC, broth dilution (Examples I/II); assay type: cell-based, pneumococcus (63001); details: Table 8, Pneumococci
Procedure: (§1) In order to establish comparative bactericidal and fungicidal results with homologous fatty acids, a series of experiments was performed with thirty straight-chain fatty acids and derivatives thereof. Eight different gram-negative and twelve different gram-positive organisms, representing a very broad spectrum of organisms, were used in these experiments including the fungus Candida (a yeast). Additionally, fatty acids were chosen to show the effects of saturation versus unsaturation, in the fatty acid claim. Standard solutions of the fatty acids and their derivatives were prepared by first dissolving the weighed compounds in 1 to 2 ml of 95% ethanol and immediately pouring this solution into 200 ml of Tripticase Soy Broth. These lipid compounds which are insoluble in water and broth precipitated into very small crystals or droplets. The tubes containing the suspension were warmed to approximately 70° C and were then placed in an ultrasonic tank for further solubilization of the lipid derivatives.
(§2) Standard solutions (or suspensions) at 1,000 μg/ml were twofold serially diluted with additional broth to a concentration of 125 μg/ml. A 4-ml amount of each dilution was then quickly, and with constant agitation, dispensed into appropriately labeled screw-capped glass tubes (16 by 125 mm). The tubes were sterilized with steam at 15 psi for 15 minutes. After sterilization, all tubes were cooled and incubated overnight at 35° C to insure sterility.
(§3) All compounds were compared on a molar (micromoles/milliliter) rather than on a mass basis. In the following lists of organisms used, those followed by a parenthetical number are registered with the American Type Culture Collection (ATCC); the remainder were isolates from Providence Hospital or Northland Laboratory.
(§4) One drop (0.04 ± 0.01 ml) of an 18-hr broth culture containing 10^7 and 10^9 organisms/ml was added to each dilution of the test compound, as well as to a tube of plain broth which served as the positive control. After inoculation, the contents of each tube were well mixed, and the tubes were incubated at 35° C in a 5% carbon dioxide + […] atmosphere.
(§5) The MIC is defined as the lowest concentration of compound at which no […] evidence of growth was observed when turbidity of the inoculated broth dilutions was compared with control tubes. […] Only a one-tube difference between the bactericidal and bacteriostatic concentrations was normally observed.
(§6) Standard solutions (1000 μg/ml) of three fatty acids and polyglycerol esters thereof were prepared as described in Example I. Also sucrose esters were prepared by transferring the weighed compounds (0.2 gm. dissolved in 1 ml absolute methanol) into 200 ml of sterile Trypticase Soy Broth (TSB). These standard solutions (1000 μg/ml) were twofold serially diluted with additional sterile broth to a concentration of 125 μg/ml. A 3.8 aliquot of each dilution was asceptically delivered into sterile screw-capped culture tubes. All tubes were incubated overnight at 36° C to insure sterility. The microorganisms used in this example were the same as those used in Example I.
(§7) The inoculum, 0.05 ml of an 13-24 hour TSB culture (approximately 10^9 organisms/ml) was asceptically delivered into all dilutions of the compounds, mixed well, and incubated at 36° C. A tube of inoculated broth without the compound served as a positive control and an uninoculated set of dilutions incubated along with the test dilutions, served as a negative control.
(§8) In those cases in which the test compound itself caused turbidity, an aliquot (0.015 ml) of the mixed broth was inoculated onto an agar plate and incubated at 36° C for examination, as described in Example I. The control procedure of Example I was also repeated. The lauric, capric, and oleic acids were used as internal controls and for comparison to Example I. The minimal inhibitory concentrations (μmole/ml) for the compounds studied are given in Tables 7 and 8.

[2] = tested on: Streptococcus Group A; assay: MIC, broth dilution (Examples I/II); assay type: cell-based, beta-hemolytic streptococci Group A; details: Table 8, Strep. Grp. A; for MIC (second value, in parentheses): parentheses not explained
Procedure: as §1, §2, §3, §4, §5, §6, §7, §8

[3] = tested on: Corynebacteria; assay: MIC, broth dilution (Examples I/II); assay type: cell-based, Corynebacterium sp. (10700); details: Table 8, Corynebacteria; for MIC (second value, in parentheses): parentheses not explained
Procedure: as §1, §2, §3, §4, §5, §6, §7, §8

[4] = tested on: Nocardia asteroides; assay: MIC, broth dilution (Examples I/II); assay type: cell-based, Nocardia asteroids (3308); details: Table 8, Nocardia asteroides; for MIC (second value, in parentheses): parentheses not explained
Procedure: as §1, §2, §3, §4, §5, §6, §7, §8

[5] = tested on: Micrococci; assay: MIC, broth dilution (Examples I/II); assay type: cell-based, Micrococcus sp.; details: Table 8, Micrococci
Procedure: as §1, §2, §3, §4, §5, §6, §7, §8

[6] = tested on: S. epidermidis; assay: MIC, broth dilution (Examples I/II); assay type: cell-based; details: for MIC: Table 8, Staph. epider., > = no inhibition, max. tested
Procedure: as §1, §2, §3, §4, §5, §6, §7, §8

[7] = tested on: Sarcina; assay: MIC, broth dilution (Examples I/II); assay type: cell-based, Sarcina lutea (9431); details: for MIC: Table 8, Sarcina, > = no inhibition, max. tested
Procedure: as §1, §2, §3, §4, §5, §6, §7, §8

[8] = tested on: Candida albicans; assay: MIC on mass basis (Example V procedure); assay type: cell-based
Procedure: (§9) The essential procedure of Example I was followed with a series of phenolic compounds, with the exception that the test method was conducted on a mass (μg/ml) basis rather than a molecular (mol/ml) basis of the foregoing tests, since the long established phenol-coeffecient test is on a mass rather than molecular basis. Additionally, a different but closely related group of organisms were used in this test, in order to give a complete representative span on gram-negative, gram-positive and fungus organisms. Additionally, the phenolic derivatives chosen for test purposes include a number of derivatives which are presently accepted by the FDA as food-grade phenolic microbicides.
(§10) The same procedure of Example V was repeated but with combinations of mono-laurin (GML).
(§11) The procedure of Example V was repeated with combinations of glycerol mono-laurin (GML) and ethylenediamine tetraacetic acid (EDTA) as the calcium salt and in combination with BHA.

[9] = tested on: Escherichia coli; assay: MIC on mass basis (Example V procedure); assay type: cell-based
Procedure: as §9, §10, §11

[10] = tested on: Nocardia asteroides; assay: MIC on mass basis (Example V procedure); assay type: cell-based
Procedure: as §9, §10, §11

[11] = tested on: Pseudomonas aeruginosa; assay: MIC on mass basis (Example V procedure); assay type: cell-based
Procedure: as §9, §10, §11

[12] = tested on: Saccharomyces cerevisiae; assay: MIC on mass basis (Example V procedure); assay type: cell-based
Procedure: as §9, §10, §11

[13] = tested on: Staphylococcus aureus; assay: MIC on mass basis (Example V procedure); assay type: cell-based
Procedure: as §9, §10, §11

[14] = tested on: Streptococcus agalactiae; assay: MIC on mass basis (Example V procedure); assay type: cell-based
Procedure: as §9, §10, §11

[15] = tested on: Streptococcus mutans; assay: MIC on mass basis (Example V procedure); assay type: cell-based, Streptococcus mutans (ATCC 10441)
Procedure: as §9, §10, §11

[16] = tested on: Corynebacterium sp.; assay: MIC on mass basis (Example V procedure); assay type: cell-based
Procedure: as §9

With Sucrose palmitate the MIC [1] was 50 µM, the MIC [2] was 100 µM and the “MIC (second value, in parentheses)” value [2] was 200 µM. The MIC [3] was 430 µM, the “MIC (second value, in parentheses)” value [3] was 260 µM and the MIC [4] was 430 µM. The “MIC (second value, in parentheses)” value [4] was over 1720 µM, the MIC [5] was 260 µM and the Inhibition in words ([6]; S. epidermis) was “only ester which inhibits S. epidermis”. For the same compound, the MIC [6] was 860 µM, the Inhibition in words ([7]; Sarcina) was “only ester which inhibits S. epidermis and Sarcina” and the MIC [7] was 430 µM.
Sucrose caprate showed an MIC [1] of 60 µM, an MIC [2] of 60 µM and an MIC [3] of 250 µM. For the same compound, the MIC [4] was 250 µM, the MIC [5] was 1000 µM and the MIC [6] was over 2000 µM. It also gave an MIC [7] of over 2000 µM.
With Sucrose oleate the MIC [1] was 50 µM, the MIC [2] was over 1640 µM and the “MIC (second value, in parentheses)” value [2] was 410 µM. The MIC [3] was over 1640 µM, the “MIC (second value, in parentheses)” value [3] was over 1640 µM and the MIC [4] was 410 µM. For the same compound, the “MIC (second value, in parentheses)” value [4] was 210 µM, the MIC [5] was 210 µM and the MIC [6] was over 1640 µM. For the same compound, the MIC [7] was over 1640 µM.
For `CC(C)(C)c1cc(C(C)(C)C)c(O)cc1O` [4,6-di-tert-butylresorcinol], the MIC ([8]; Candida albicans, Table 11, Candida albicans, read-out: MIC) was 62.5 µg/mL, the MIC ([9]; Escherichia coli, Table 11, Escherichia coli, read-out: MIC) was over 1000 µg/mL and the MIC ([10]; Table 11, Nocardia asteroides, read-out: MIC) was 7.8 µg/mL. For the same compound, the MIC ([11]; Pseudomonas aeruginosa, Table 11, Pseudomonas aeruginosa, read-out: MIC) was over 1000 µg/mL, the MIC ([12]; Saccharomyces cerevisiae) was 15.6 µg/mL and the MIC ([13]; Staphylococcus aureus, Table 11, Staphylococcus aureus, read-out: MIC) was 15.6 µg/mL. It also gave an MIC ([14]; Streptococcus agalactiae, Table 11, Strepococcus agalactiae, read-out: MIC) of 15.6 µg/mL, an MIC ([15]; Streptococcus mutans, Table 11, Strepococcus mutans, read-out: MIC) of 7.8 µg/mL and an MIC ([16]; Table 11, Corynebacterium sp., read-out: MIC) of 7.8 µg/mL (≈ 35.1 µM).
With `CC(C)(C)c1cc(O)cc(C(C)(C)C)c1` [3,5-di-tert-butylphenol] the MIC ([8]; Candida albicans) was 62.5 µg/mL, the MIC ([9]; Escherichia coli) was over 1000 µg/mL and the MIC ([10]; Nocardia asteroides) was 15.6 µg/mL. It also gave an MIC ([11]; Pseudomonas aeruginosa) of over 1000 µg/mL, an MIC ([12]; Saccharomyces cerevisiae) of 62.5 µg/mL and an MIC ([13]; Staphylococcus aureus) of 31.2 µg/mL. The MIC ([14]; Streptococcus agalactiae) was 31.2 µg/mL, the MIC ([15]; Streptococcus mutans) was 15.6 µg/mL and the MIC ([16]; Corynebacterium) was 15.6 µg/mL (≈ 75.6 µM).
With Sucrose myristate the MIC [1] was 230 µM, the MIC [2] was 50 µM and the “MIC (second value, in parentheses)” value [2] was 110 µM. The MIC [3] was 110 µM, the “MIC (second value, in parentheses)” value [3] was 110 µM and the MIC [4] was 230 µM. The “MIC (second value, in parentheses)” value [4] was 110 µM, the MIC [5] was 230 µM and the MIC [6] was over 1840 µM. It also gave an MIC [7] of over 1840 µM.
In the case of 3(2)-tert-butyl-4-methoxyphenol [BHA], the MIC ([8]; Table 11, Candida albicans) is reported as 125 µg/mL, the MIC ([8]; Table 13, Candida albicans) is reported as 125 µg/mL and the MIC ([8]; Table 14, Candida albicans) is reported as 125 µg/mL. For the same compound, the MIC ([9]; Table 11, Escherichia coli) was > 1,000 μg/ml, the MIC ([9]; Table 13, Escherichia coli) was 500 µg/mL and the MIC ([9]; Table 14, Escherichia coli) was 500 µg/mL. For the same compound, the MIC ([10]; Table 11, Nocardia asteroides) was 125 µg/mL, the MIC ([10]; Table 13, Nocardia asteroides) was 62.50 µg/mL and the MIC ([10]; Table 14, Nocardia asteroides) was 62.50 µg/mL. The MIC ([11]; Table 11, Pseudomonas aeruginosa) was > 1,000 μg/ml, the MIC ([11]; Table 13, Pseudomonas aeruginosa) was > 1,000 μg/ml and the MIC ([11]; Table 14, Pseudomonas aeruginosa) was > 1,000 μg/ml. It also gave an MIC ([12]; Table 13, Saccharomyces cerevisiae) of 125 µg/mL, an MIC ([12]; Table 14, Saccharomyces cerevisiae) of 125 µg/mL and an MIC ([13]; Table 11, Staphylococcus aureus) of 125 µg/mL. It also gave an MIC ([13]; Table 13, Staphylococcus aureus) of 125 µg/mL, an MIC ([13]; Table 14, Staphylococcus aureus) of 125 µg/mL and an MIC ([14]; Table 11, Strepococcus agalactiae) of 125 µg/mL. It also gave an MIC ([14]; Table 13, Streptococcus agalactiae) of 62.50 µg/mL, an MIC ([14]; Table 14, Streptococcus agalactiae) of 62.50 µg/mL and an MIC ([15]; Table 11, Strepococcus mutans) of 62.50 µg/mL. It also gave an MIC ([15]; Table 13, Streptococcus mutans) of 62.50 µg/mL, an MIC ([15]; Table 14, Streptococcus mutans) of 62.50 µg/mL and an MIC ([16]; Table 11, Corynebacterium sp.) of 62.50 µg/mL.
